From PubChem BioAssay (NCI)
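Assay format: 96-well plates, 48-hour exposure. The concentration for 50% growth inhibition is given as GI50. At the TGI there is no net growth.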

Legend:
Assay in all cases: NCI-60 cell line screen, 48 h
[1] = system: SK-MEL-2 melanoma
[2] = system: MDA-MB-231 breast
[3] = system: K-562 leukemia
[4] = system: NCI-H226 lung
[5] = system: SNB-75 CNS
[6] = system: SK-MEL-28 melanoma
[7] = system: SR leukemia
[8] = system: MALME-3M melanoma
[9] = system: NCI/ADR-RES ovarian
[10] = system: LOX IMVI melanoma
[11] = system: NCI-H522 lung
[12] = system: KM12 colon
[13] = system: OVCAR-8 ovarian
[14] = system: SK-MEL-5 melanoma
[15] = system: PC-3 prostate
[16] = system: IGROV1 ovarian
[17] = system: SW-620 colon
[18] = system: NCI-H460 lung
[19] = system: HCC-2998 colon
[20] = system: HCT-116 colon
[21] = system: T-47D breast
[22] = system: BT-549 breast
[23] = system: HOP-92 NSCLC
[24] = system: EKVX NSCLC
[25] = system: ACHN renal
[26] = system: SF-268 CNS
[27] = system: RPMI-8226 leukemia
[28] = system: MOLT-4 leukemia
[29] = system: A498 renal
[30] = system: SF-539 CNS
[31] = system: U251 CNS
[32] = system: M14 melanoma
[33] = system: DU-145 prostate
[34] = system: HL-60(TB) leukemia
[35] = system: RXF 393 renal
[36] = system: UACC-62 melanoma
[37] = system: SN12C renal
[38] = system: SK-OV-3 ovarian
[39] = system: HS 578T breast
[40] = system: OVCAR-3 ovarian
[41] = system: 786-0 renal
[42] = system: UO-31 renal
[43] = system: CAKI-1 renal
[44] = system: MDA-MB-435
[45] = system: OVCAR-4 ovarian
[46] = system: CCRF-CEM leukemia
[47] = system: HT29 colon
[48] = system: SNB-19 CNS
[49] = system: OVCAR-5 ovarian
[50] = system: UACC-257 melanoma
[51] = system: A549 NSCLC
[52] = system: HOP-62 NSCLC
[53] = system: HCT-15 colon
[54] = system: COLO 205 colon
[55] = system: SF-295 CNS
[56] = system: MCF7 breast
[57] = system: TK-10 renal

Q: What does the source list for COc1cc(OC)c(S(N)(=O)=O)cc1C(=O)/C=C/c1ccccc1?
A: GI50 [1]: 12.6 µM; TGI [1]: 26.5 µM; GI50 [2]: 11.9 µM; TGI [2]: 27 µM; GI50 [3]: 1.5 µM; TGI [3]: 22.3 µM; GI50 [4]: 10 µM; TGI [4]: 26.4 µM; GI50 [5]: 2.08 µM; TGI [5]: 7.32 µM; GI50 [6]: 12.5 µM; TGI [6]: 25.3 µM; GI50 [7]: 1.73 µM; TGI [7]: 24.8 µM; GI50 [8]: 13.9 µM; TGI [8]: 29.3 µM; GI50 [9]: 15.5 µM; TGI [9]: 57.6 µM; GI50 [10]: 0.335 µM; TGI [10]: 12.4 µM; GI50 [11]: 6.56 µM; TGI [11]: 20.8 µM; GI50 [12]: 3.31 µM; TGI [12]: 18.5 µM; GI50 [13]: 11.3 µM; TGI [13]: 24.1 µM; GI50 [14]: 17.6 µM; TGI [14]: 32.4 µM; GI50 [15]: 5.95 µM; TGI [15]: 20.6 µM; GI50 [16]: 9.74 µM; TGI [16]: 27.6 µM; GI50 [17]: 2.68 µM; TGI [17]: 13.4 µM; GI50 [18]: 1.95 µM; TGI [18]: 12.5 µM; GI50 [19]: 12.5 µM; TGI [19]: 26.2 µM; GI50 [20]: 1.49 µM; TGI [20]: 14.8 µM; GI50 [21]: 2.09 µM; TGI [21]: 12.1 µM; GI50 [22]: 2.65 µM; TGI [22]: 14.1 µM; GI50 [23]: 2.06 µM; TGI [23]: 12 µM; GI50 [24]: 14.2 µM; TGI [24]: 27.6 µM; GI50 [25]: 7 µM; TGI [25]: 20.1 µM; GI50 [26]: 5.88 µM; TGI [26]: 22.9 µM; GI50 [27]: 2.98 µM; TGI [27]: 21.4 µM; GI50 [28]: 10.1 µM; TGI [28]: 43.1 µM; GI50 [29]: 16.9 µM; TGI [29]: 30.7 µM; GI50 [30]: 2.44 µM; TGI [30]: 8.98 µM; GI50 [31]: 2.92 µM; TGI [31]: 15.2 µM; GI50 [32]: 7.51 µM; TGI [32]: 23.8 µM; GI50 [33]: 1.88 µM; TGI [33]: 13.9 µM; GI50 [34]: 2.27 µM; TGI [34]: 23.2 µM; GI50 [35]: 1.9 µM; TGI [35]: 7.74 µM; GI50 [36]: 12.2 µM; TGI [36]: 26.9 µM; GI50 [37]: 3.49 µM; TGI [37]: 16.9 µM; GI50 [38]: 14.4 µM; TGI [38]: 27.6 µM; GI50 [39]: 5.89 µM; TGI [39]: 43.3 µM; GI50 [40]: 2.71 µM; TGI [40]: 13.1 µM; GI50 [41]: 4.82 µM; TGI [41]: 20.8 µM; GI50 [42]: 4.76 µM; TGI [42]: 19 µM; GI50 [43]: 1.86 µM; TGI [43]: 15.6 µM; GI50 [44]: 2.12 µM; TGI [44]: 12 µM; GI50 [45]: 11.8 µM; TGI [45]: 25.7 µM; GI50 [46]: 3.93 µM; TGI [46]: 67.2 µM; GI50 [47]: 4.02 µM; TGI [47]: 13.8 µM; GI50 [48]: 14 µM; TGI [48]: 28.5 µM; GI50 [49]: 13.2 µM; TGI [49]: 26.7 µM; GI50 [50]: 9.96 µM; TGI [50]: 21.8 µM; GI50 [51]: 10.5 µM; TGI [51]: 22.7 µM; GI50 [52]: 9.51 µM; TGI [52]: 22.6 µM; GI50 [53]: 3.55 µM; TGI [53]: 20.1 µM; GI50 [54]: 10.6 µM; TGI [54]: 24 µM; GI50 [55]: 15.7 µM; TGI [55]: 30.3 µM; GI50 [56]: 0.97 µM; TGI [56]: 14.2 µM; GI50 [57]: 12.9 µM; TGI [57]: 25.8 µM
